Like-named read-outs stand apart in the source and are kept apart here.
What was measured:
HBV = test: In-vitro anti-HBV activity in stable HBV-producing cell line (HepG2.2.15), HBV DNA in culture fluid by qPCR; type: cell-based; details: Hepatitis B virus, read-out: HBV (% Inh.) (500 nmol)
Protocol: In-Vitro Anti-HBV Activity of Compounds in Stable HBV-Producing Cell Line (HepG2.2.15)
HBV DNA contents in cell culture fluid were detected by the qPCR-based assay and percents of HBV inhibition by compounds (% Inh) were calculated. Specific procedures are as follows:
HepG2.2.15 cells were seeded into each well of 96-well plates, 40,000 cells per well. Cells were treated with cell culture medium containing compounds 24 hours after cell seeding. Each compound to detected percent inhibition was in duplicate and the final concentration of each compound was 500 nmol in each well. The compound-containing mediums were refreshed on day 4 post cell seeding. Culture media were collected from the HepG2.2.15 plates on day 7 post cell seeding followed by HBV DNA extraction.
HBV DNA extraction: using QIAamp 96 DNA Blood Kit (QIAGEN 51161).
PCR for quantification: PCR mix was prepared according to PCR system; PCR mix was dispensed to 384-well optical reaction plates (special for quantification); The standard diluted proportionally was added; The sample was added; The plates were sealed with optical adhesive film; PCR system was performed according to programs.
Percent of HBV inhibition of DNA replication by compound was calculated using the following equation: % Inh.=[1-HBV DNA quantity of sample/HBV DNA quantity of DMSO control]*100. II. Assay Results

[1] = Test compounds' PK assay in ICR mice; type: in vivo; details: mouse, plasma, 10 mg/kg; for AUC(0-t): AUC in 0-24 hours; for AUC(0-inf): AUC in 0 hour to infinite time
Protocol: The test compounds were poured into ICR mice stomach through mouth with 10 mg/kg or administered 2 mg/kg or 10 mg/kg to ICR mice by tail-intravenous injection. Blood sample of orbital vein was taken at 0.083, 0.25, 0.5, 1, 2, 4, 6, 8 and 24 hours after administration, and collected in anticoagulation tube added with EDTA-K2. The test compounds were extracted from plasma samples and chromatographed on a tandem mass spectrometer. Quantitation was performed using multiple reaction monitoring (MRM). Pharmacokinetic parameters were calculated using WinNonlin 6.1 software with non compartment model.

[2] = 168 h, 500 nmol final concentration, HepG2.2.15 cells, HBV DNA in culture media on day 7 post seeding, vs DMSO control

SMILES	inhibition at 0.5 µM (HBV; [2])	also measured
CCOC(=O)C1=C(CN2CCOC(CC(=O)O)C2)NC(c2nccs2)=NC1c1ccc(F)cc1Br (stereo not drawn) [Example 74, 2-(4-((6-(2-bromo-4-fluorophenyl)-5-(ethoxycarbonyl)-2-(thiazol-2-yl)-3,6-dihydropyrimidin-4-yl)methyl)morpholin-2-yl)acetic acid]	91.7%	clearance ([1]; iv): 15.5 mL/min/kg; half-life ([1]; iv): 1.02 h; AUC(0-t) ([1]; iv): 10600 ng·h/mL; AUC(0-inf) ([1]; iv): 11200 ng·h/mL; Vd ([1]; iv, read-out: Vss): 0.82 L/kg; Cmax ([1]; po): 7330 ng/mL; Tmax ([1]; po): 0.25 h; half-life ([1]; po): 1.18 h; AUC(0-t) ([1]; po): 7890 ng·h/mL; AUC(0-inf) ([1]; po): 8160 ng·h/mL; bioavailability ([1]; po, read-out: F (absolute bioavailability)): 74.2%
CCOC(=O)C1=C(CN2CCOC(CCC(N)=O)C2)NC(c2nccs2)=NC1c1ccc(F)cc1Br (stereo not drawn) [Example 135, Ethyl 6-((2-(3-amino-3-oxopropyl)morpholino)methyl)-4-(2-bromo-4-fluorophenyl)-2-(thiazol-2-yl)-1,4-dihydropyrimidine-5-carboxylate]	93.3%	–
CCOC(=O)C1=C(CN2CCOC(C(=O)O)C2)NC(c2ncn(C)n2)=NC1c1ccc(F)cc1Br (stereo not drawn) [Example 83, 4-((6-(2-bromo-4-fluorophenyl)-5-(ethoxycarbonyl)-2-(1-methyl-1H-1,2,4-triazol-3-yl)-3,6-dihydropyrimidin-4-yl)methyl)morpholine-2-carboxylic acid]	36%	–
CCOC(=O)C1=C(CN2CC(C)(C)OC[C@H]2C(=O)O)NC(c2nccs2)=NC1c1ccc(Cl)cc1Cl (stereo partly drawn) [Example 21, (3S)-4-((6-(2,4-dichlorophenyl)-5-(ethoxycarbonyl)-2-(thiazol-2-yl)-3,6-dihydropyrimidin-4-yl)methyl)-6,6-dimethylmorpholine-3-carboxylic acid]	51.2%	–
CCOC(=O)C1=C(CN2CCOC[C@H]2C(=O)NCCOC(C)=O)NC(c2nccs2)=NC1c1ccc(F)cc1Br (stereo partly drawn) [Example 55, Ethyl 6-(((S)-3-((2-acetoxyethyl)carbamoyl)morpholino)methyl)-4-(2-bromo-4-fluorophenyl)-2-(thiazol-2-yl)-1,4-dihydropyrimidine-5-carboxylate]	93%	–
CCOC(=O)C1=C(CN2CC(C)(C)OC[C@H]2C(=O)O)NC(c2nccs2)=NC1c1ccc(F)cc1Cl (stereo partly drawn) [Example 23, (3S)-4-((6-(2-chloro-4-fluorophenyl)-5-(ethoxycarbonyl)-2-(thiazol-2-yl)-3,6-dihydropyrimidin-4-yl)methyl)-6,6-dimethylmorpholine-3-carboxylic acid]	45%	–
CCOC(=O)C1=C(CN2CCOC[C@H]2C(=O)NO)NC(c2nccs2)=NC1c1ccc(F)cc1Br (stereo partly drawn) [Example 52, Ethyl 4-(2-bromo-4-fluorophenyl)-6-(((S)-3-(hydroxycarbamoyl)morpholino)methyl)-2-(thiazol-2-yl)-1,4-dihydropyrimidine-5-carboxylate]	89.5%	–
CCOC(=O)C1=C(CN2CCOC[C@@H]2CO)NC(c2nccs2)=NC1c1ccc(F)cc1Br (stereo partly drawn) [Example 40, Ethyl 4-(2-bromo-4-fluorophenyl)-6-(((S)-3-(hydroxymethyl)morpholino)methyl)-2-(thiazol-2-yl)-1,4-dihydropyrimidine-5-carboxylate]	95%	–
CCOC(=O)C1=C(CN2CCOCC2C(N)=O)NC(c2nccs2)=NC1c1ccc(Cl)cc1Cl (stereo not drawn) [Example 27, Ethyl 6-((3-carbamoylmorpholino)methyl)-4-(2,4-dichlorophenyl)-2-(thiazol-2-yl)-1,4-dihydropyrimidine-5-carboxylate]	91.9%	–
CCOC(=O)C1=C(CN2CCOCC2C(=O)O)NC(c2ncc(F)s2)=NC1c1ccc(Cl)cc1Cl (stereo not drawn) [Example 122, 4-((6-(2,4-dichlorophenyl)-5-(ethoxycarbonyl)-2-(5-fluorothiazol-2-yl)-3,6-dihydropyrimidin-4-yl)methyl)morpholine-3-carboxylic acid]	46.2%	–
CCOC(=O)C1=C(CN2CCOCC2C(=O)OC)NC(c2nccs2)=NC1c1ccc(F)cc1Br (stereo not drawn) [Example 51, Methyl 4-((6-(2-bromo-4-fluorophenyl)-5-(ethoxycarbonyl)-2-(thiazol-2-yl)-3,6-dihydropyrimidin-4-yl)methyl)morpholine-3-carboxylate]	–	inhibition at 0.5 µM (HBV; HepG2.2.15, 168 h): 91.3%
CCOC(=O)C1=C(CN2CCOCC2C(=O)OC(C)C)NC(c2nccs2)=NC1c1ccc(Cl)cc1Cl (stereo not drawn) [Example 78, Isopropyl 4-((6-(2,4-dichlorophenyl)-5-(ethoxycarbonyl)-2-(thiazol-2-yl)-3,6-dihydropyrimidin-4-yl)methyl)morpholine-3-carboxylate]	87.9%	–
CCOC(=O)C1=C(CN2CCOCC2C(=O)O)NC(c2nccs2)=NC1c1ccc(F)cc1Br (stereo not drawn) [Example 3, 4-((6-(2-bromo-4-fluorophenyl)-5-(ethoxycarbonyl)-2-(thiazol-2-yl)-3,6-dihydropyrimidin-4-yl)methyl)morpholine-3-carboxylic acid]	84.5%	–
CCOC(=O)C1=C(CN2CCOC(C(=O)O)C2)NC(c2nccs2)=NC1c1ccc(F)cc1Br (stereo not drawn) [Example 9, 4-((6-(2-bromo-4-fluorophenyl)-5-(ethoxycarbonyl)-2-(thiazol-2-yl)-3,6-dihydropyrimidin-4-yl)methyl)morpholine-2-carboxylic acid]	–	inhibition at 0.5 µM (HBV; HepG2.2.15, 168 h): 93.1%
CCOC(=O)C1=C(CN2CCOCC2C(=O)O)NC(c2nncs2)=NC1c1ccc(Cl)cc1Cl (stereo not drawn) [Example 70, 4-((6-(2,4-dichlorophenyl)-5-(ethoxycarbonyl)-2-(1,3,4-thiadiazol-2-yl)-3,6-dihydropyrimidin-4-yl)methyl)morpholine-3-carboxylic acid]	63.6%	–
CCOC(=O)C1=C(CN2CCOCC2C(=O)NC)NC(c2nccs2)=NC1c1ccc(F)cc1Br (stereo not drawn) [Example 136, Ethyl 4-(2-bromo-4-fluorophenyl)-6-((3-(methylcarbamoyl)morpholino)methyl)-2-(thiazol-2-yl)-1,4-dihydropyrimidine-5-carboxylate]	95.8%	–
CCOC(=O)C1=C(CN2CCOC[C@H]2C(=O)NOC)NC(c2nccs2)=NC1c1ccc(F)cc1Br (stereo partly drawn) [Example 53, Ethyl 4-(2-bromo-4-fluorophenyl)-6-(((S)-3-(methoxycarbamoyl)morpholino)methyl)-2-(thiazol-2-yl)-1,4-dihydropyrimidine-5-carboxylate]	92.6%	–
CCOC(=O)C1=C(CN2CCOC[C@@H]2CO)NC(c2nccs2)=NC1c1ccc(Cl)cc1Cl (stereo partly drawn) [Example 42, Ethyl 4-(2,4-dichlorophenyl)-6-(((S)-3-(hydroxymethyl)morpholino)methyl)-2-(thiazol-2-yl)-1,4-dihydropyrimidine-5-carboxylate]	–	inhibition at 0.5 µM (HBV; HepG2.2.15, 168 h): 91.9%
CCOC(=O)C1=C(CN2CC(C)(C)OC[C@H]2C(=O)OC)NC(c2nccs2)=NC1c1ccc(Cl)cc1Cl (stereo partly drawn) [Example 24, Methyl (3S)-4-((6-(2,4-dichlorophenyl)-5-(ethoxycarbonyl)-2-(thiazol-2-yl)-3,6-dihydropyrimidin-4-yl)methyl)-6,6-dimethylmorpholine-3-carboxylate]	56.1%	–
COC(=O)C1=C(CN2CCOC(C(=O)O)C2)NC(c2nccs2)=NC1c1ccc(F)cc1Cl (stereo not drawn) [Example 13, 4-((6-(2-chloro-4-fluorophenyl)-5-(methoxycarbonyl)-2-(thiazol-2-yl)-3,6-dihydropyrimidin-4-yl)methyl)morpholine-2-carboxylic acid]	54.5%	–
CCOC(=O)C1=C(CN2CCOC[C@H]2C(=O)N(C)OC)NC(c2nccs2)=NC1c1ccc(F)cc1Br (stereo partly drawn) [Example 60, Ethyl 4-(2-bromo-4-fluorophenyl)-6-(((S)-3-(methoxy(methyl)carbamoyl)morpholino)methyl)-2-(thiazol-2-yl)-1,4-dihydropyrimidine-5-carboxylate]	94%	–
CCOC(=O)C1=C(CN2CCO[C@H](CO)C2)NC(c2nccs2)=NC1c1ccc(F)cc1Br (stereo partly drawn) [Example 66, Ethyl 4-(2-bromo-4-fluorophenyl)-6-(((S)-2-(hydroxymethyl)morpholino)methyl)-2-(thiazol-2-yl)-1,4-dihydropyrimidine-5-carboxylate]	–	inhibition at 0.5 µM (HBV; HepG2.2.15, 168 h): 88.8%
